From US10072011B2, “Substituted bridged urea analogs as sirtuin modulators” (GlaxoSmithKline Intellectual Property (No.2) Limited, priority 2014, dated 2018)

Target: T1, SIRT1 (Homo sapiens, UniProt Q96EB6)
T1 sequence (Q96EB6 1-747): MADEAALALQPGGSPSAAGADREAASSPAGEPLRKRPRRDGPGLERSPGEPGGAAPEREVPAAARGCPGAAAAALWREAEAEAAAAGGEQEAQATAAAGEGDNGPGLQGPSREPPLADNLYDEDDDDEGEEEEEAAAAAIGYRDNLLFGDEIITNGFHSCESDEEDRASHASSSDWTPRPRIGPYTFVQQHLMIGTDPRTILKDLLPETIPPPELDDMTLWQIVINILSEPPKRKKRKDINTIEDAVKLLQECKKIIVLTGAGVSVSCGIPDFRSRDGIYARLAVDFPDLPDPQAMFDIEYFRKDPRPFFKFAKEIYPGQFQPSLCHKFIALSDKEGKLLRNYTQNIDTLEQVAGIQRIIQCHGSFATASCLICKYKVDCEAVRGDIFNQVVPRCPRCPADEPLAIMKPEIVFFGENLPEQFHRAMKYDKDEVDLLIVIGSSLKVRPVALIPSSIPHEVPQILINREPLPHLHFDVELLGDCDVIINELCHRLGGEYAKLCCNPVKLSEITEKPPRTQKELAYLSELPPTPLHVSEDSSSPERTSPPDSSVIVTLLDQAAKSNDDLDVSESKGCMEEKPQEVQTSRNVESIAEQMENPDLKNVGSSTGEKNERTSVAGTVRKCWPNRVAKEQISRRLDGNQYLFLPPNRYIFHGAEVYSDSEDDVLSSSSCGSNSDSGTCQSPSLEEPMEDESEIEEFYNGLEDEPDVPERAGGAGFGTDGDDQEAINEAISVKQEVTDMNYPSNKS
Assay: Trp mass spectrometry assay of SIRT1 activation (Ac-R-H-K-K(Ac)-W-NH2 peptide)
Format: biochemical
Details: Trp peptide 0.5 μM, 120 μM βNAD+, 10 nM SIRT1, 25 min at 25° C.; for Emax: 25 min, read-out: TRP MAX RESP (percent maximum fold activation)
Procedure, shortened: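 Mass spectrometry read-out (OAADPR formed, or deacetylated Trp peptide) after a 25 min NAD-dependent deacetylation by E. coli-expressed His-SIRT1, stopped with formic acid.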

SMILES | TRP Activity (EC1.5, concentration of test compound that results in 150% activation of SIRT1) | TRP MAX RESP (percent maximum fold activation) (relative to control (100%)) | Emax (relative to control (100%))
C=CCNC(=O)c1ccc2c(n1)N(C(=O)Nc1cc(OC[C@H](O)CO)ccn1)[C@H]1CCN2C1 [Example 315, (4S)—N7-allyl-N5-(4-((R)-2,3-dihydroxypropoxy)pyridin-2-yl)-3,4-dihydro-1,4-methanopyrido[2,3-b][1,4]diazepine-5,7(2H)-dicarboxamide] | B (EC1.5 1-25 μM) | B (Fold Activation<150%) | 
Cc1ccc2c(NC(=O)N3c4nc(C(=O)N[C@H](C)C(F)(F)F)c(Cl)cc4N4CC[C@H]3C4)n[nH]c2n1 [Example 316, (4S)-8-chloro-N5-(6-methyl-1H-pyrazolo[3,4-b]pyridin-3-yl)-N7-((R)-1,1,1-trifluoropropan-2-yl)-3,4-dihydro-1,4-methanopyrido[2,3-b][1,4]diazepine-5,7(2H)-dicarboxamide] | B (EC1.5 1-25 μM) |  | < 150%
Cc1ncc(-c2cc(NC(=O)N3c4nc(C(=O)N[C@H](C)C(F)(F)F)ccc4N4CC[C@H]3C4)ncn2)o1 [Example 318, (4S)—N5-(6-(2-methyloxazol-5-yl)pyrimidin-4-yl)-N7-((R)-1,1,1-trifluoropropan-2-yl)-3,4-dihydro-1,4-methanopyrido[2,3-b][1,4]diazepine-5,7(2H)-dicarboxamide] | A (EC1.5<1 μM) |  | < 150%
Cc1ncc(-c2cc(NC(=O)N3c4nc(C(=O)N[C@H](C)C(F)(F)F)ccc4N4CC[C@H]3C4)c(=O)n(C)c2)o1 [Example 319, (4S)—N5-(1-methyl-5-(2-methyloxazol-5-yl)-2-oxo-1,2-dihydropyridin-3-yl)-N7-((R)-1,1,1-trifluoropropan-2-yl)-3,4-dihydro-1,4-methanopyrido[2,3-b][1,4]diazepine-5,7(2H)-dicarboxamide] | A (EC1.5<1 μM) |  | < 150%
CC(=O)Nc1ccnc(NC(=O)N2c3nc(C(=O)N[C@H](C)C(F)(F)F)ccc3N3CC[C@H]2C3)c1 [Example 320, (4S)—N5-(4-acetamidopyridin-2-yl)-N7-((R)-1,1,1-trifluoropropan-2-yl)-3,4-dihydro-1,4-methanopyrido[2,3-b][1,4]diazepine-5,7(2H)-dicarboxamide] | A (EC1.5<1 μM) |  | < 150%
C[C@@H](NC(=O)c1ccc2c(n1)N(C(=O)Nc1cc(-c3cn[nH]c3)ccn1)[C@H]1CCN2C1)C(F)(F)F [Example 321, (4S)—N5-(4-(1H-pyrazol-4-yl)pyridin-2-yl)-N7-((R)-1,1,1-trifluoropropan-2-yl)-3,4-dihydro-1,4-methanopyrido[2,3-b][1,4]diazepine-5,7(2H)-dicarboxamide] | A (EC1.5<1 μM) |  | < 150%

Second part, the compound after the results:

TRP Activity (EC1.5, concentration of test compound that results in 150% activation of SIRT1) | TRP MAX RESP (percent maximum fold activation) (relative to control (100%)) | Emax (relative to control (100%)) | SMILES
A (EC1.5<1 μM) |  | < 150% | C[C@@H](NC(=O)c1ccc2c(n1)N(C(=O)Nc1cc(-c3ncn[nH]3)ccn1)[C@H]1CCN2C1)C(F)(F)F [Example 322, (4S)—N5-(4-(1H-1,2,4-triazol-5-yl)pyridin-2-yl)-N7-((R)-1,1,1-trifluoropropan-2-yl)-3,4-dihydro-1,4-methanopyrido[2,3-b][1,4]diazepine-5,7(2H)-dicarboxamide]
A (EC1.5<1 μM) |  | < 150% | C[C@@H](NC(=O)c1ccc2c(n1)N(C(=O)Nc1cc(-c3cc[nH]n3)ccn1)[C@H]1CCN2C1)C(F)(F)F [Example 323, (4S)—N5-(4-(1H-pyrazol-3-yl)pyridin-2-yl)-N7-((R)-1,1,1-trifluoropropan-2-yl)-3,4-dihydro-1,4-methanopyrido[2,3-b][1,4]diazepine-5,7(2H)-dicarboxamide]
A (EC1.5<1 μM) |  | < 150% | C[C@@H](NC(=O)c1ccc2c(n1)N(C(=O)Nc1cc(NS(C)(=O)=O)ccn1)[C@H]1CCN2C1)C(F)(F)F [Example 324, (4S)—N5-(4-(methylsulfonamido)pyridin-2-yl)-N7-((R)-1,1,1-trifluoropropan-2-yl)-3,4-dihydro-1,4-methanopyrido[2,3-b][1,4]diazepine-5,7(2H)-dicarboxamide]
A (EC1.5<1 μM) |  | < 150% | C[C@@H](NC(=O)c1ccc2c(n1)N(C(=O)Nc1cc(-c3cnc(C4CC4)s3)ccn1)[C@H]1CCN2C1)C(F)(F)F [Example 325, (4S)—N5-(4-(2-cyclopropylthiazol-5-yl)pyridin-2-yl)-N7-((R)-1,1,1-trifluoropropan-2-yl)-3,4-dihydro-1,4-methanopyrido[2,3-b][1,4]diazepine-5,7(2H)-dicarboxamide]
